Marks after values point to notes of the source that are not given here.
Columns and labels:
Type in all cases: in vivo, human
[1] = system: participants with NT1; assay: Nocturnal polysomnography (PSG) sleep architecture, Phase 2 NT1 trial
Excerpt: (§1) Polysomnography (PSG) was collected at baseline and after 27 and 54 days of treatment. Sleep was manually scored following AASM guidelines; sleep metrics were extracted then computed by whole night and by quarter-night. Continuous accelerometry (Empatica EmbracePlus watch) allowed assessment of sleep in a naturalistic manner at home. Daily sleep diaries were used to capture subjective reports. Mixed effects models were fit with treatment, quarter-night, visit, and their interactions as fixed effects and random intercepts per subject. A reference PSG dataset (Vilela M, et al. J Sleep Res 2024; e14216) from CHU Montpellier (49 clinical controls and 114 patients with NT1, all drug-free) was analyzed to establish DNS characteristics of NT1.

[2] = system: participants with NT1; assay: At-home continuous accelerometry of sleep, Phase 2 NT1 trial
Excerpt: as §1
Consistent with sleep diaries, adverse events of mild to moderate insomnia were reported by 48% of Compound A-treated participants and most resolved within 1 week. […] Conclusion: Treatment with Compound A may help normalize REM architecture and reduce disturbing dreams without changing WASO or deep sleep.

[3] = system: participants with NT1; assay: Functional Impacts of Narcolepsy Instrument (FINI), Phase 2 NT1 trial; settings: range across Compound A doses
Excerpt: The functional impact of NT1 on subjects can be assessed by the FINI. The FINI is a fit-for-purpose 28-item instrument developed by the sponsor to ensure easy to interpret concepts that are meaningful to narcolepsy patients. The FINI measures the functional impacts of narcolepsy across 6 domains: Tiredness (items 1-7), Cognitive Functioning (items 8-12), Cataplexy (items 13-17), Social Activities (items 18-21), Everyday Activities (items 22-25), and Everyday Responsibilities (items 26-28). Each item asks about the impact that narcolepsy has had on their daily functioning during the past 7 days, and scored from 0-4, where 0 indicates the best health and 4 the worst. There is no total score; for each participant, an average score is calculated for each domain, if at least half the items in the domain have been answered:
Sum of responses in the domain/Number of completed items in the domain
The average domain score is then standardized to a 0-100 scale, where 0 indicates the best health and 100 the worst health. A decrease from baseline would thus indicate improved health:
Standardized score=average score/4×100
An analysis of exploratory data from the trial investigated the effect of Compound A on functioning and HRQoL in individuals with ICSD-3 confirmed NT1. Participants aged 18-70 years (Japan: 16-70), with an Epworth Sleepiness Scale (ESS) score>12, and ≥4 partial/complete episodes of cataplexy/week were eligible for inclusion. Participants were randomized to oral Compound A (0.5 mg twice 3 hours apart, 2 mg twice 3 hours apart, 2 mg then 5 mg 3 hours later, or 7 mg once-daily), or placebo. Exploratory endpoints included 3 domains (social activities, everyday activities, and everyday responsibilities) from the 6-domain Functional Impacts of Narcolepsy Instrument (FINI) in which each item uses 5-point Likert scale and higher standardized domain scores (0-100) indicate more severe impact; the 36-item short-form (SF-36); and the EuroQoL 5-Dimensions 5-Levels (EQ-5D-5L) questionnaire.

[4] = system: participants with NT1; assay: Clinical and Patient Global Impression (CGI, PGI), Phase 2 NT1 trial; settings: Week 8, patients treated with Compound A
Excerpt: The Patient Global Impression Scale-Severity Scale (PGI-S) provides a participant-perceived assessment of overall symptoms (4-point Likert-type scale, “normal to “severe”) administered at baseline while the Patient Global Impression-Improvement Scale (PGI-I) provides a participant-perceived summary of global treatment effect on daytime sleepiness and cataplexy (7-point Likert-type scale, “very much improved” to “very much worse”) administered at different points during treatment.
The Clinical Global Impression Scale provides an overall clinician-determined summary measure of a participant's treatment experience that takes into account all available information, including knowledge of the participant's history, psychosocial circumstances, symptoms, behavior, and the impact of the symptoms on the participant's ability to function. The assessment consists of various subscales. One is the Clinical Global Impression-Severity (CGI-S). The CGI-S assesses the severity of overall narcolepsy symptoms. It uses a 7-point Likert-type scale ranging from “normal, not at all ill” to “among the most extremely ill patients.”
Another subscale is the Clinical Global Impression-Improvement (CGI-I), which assesses improvement of symptoms. The CGI-I asks clinicians to rate the extent to which their patients' current overall narcolepsy symptoms are improved (compared with the start of the study). […]

CCS(=O)(=O)N[C@@H]1[C@H](Cc2cccc(-c3cc(F)cc(F)c3)c2F)N(C(=O)C(C)(C)O)CC1(F)F [Compound A, N-{(2S,3R)-4,4-difluoro-1-(2-hydroxy-2-methylpropanoyl)-2-[(2,3′,5′-trifluoro[1,1′-biphenyl]-3-yl)methyl]pyrrolidin-3-yl}ethanesulfonamide]
PSG % of time in N1, change from baseline to week 8 ([1]; 7 mg QD): 2.90* %
PSG % of time in N2, change from baseline to week 8 ([1]; 7 mg QD): −6.10* %
PSG % of time in N3, change from baseline to week 8 ([1]; 7 mg QD): −0.12%
PSG % of time in REM, change from baseline to week 8 ([1]; 7 mg QD): −4.48* %
PSG % of time in WASO, change from baseline to week 8 ([1]; 7 mg QD): 7.81* %
PSG No. of awakenings, change from baseline to week 8 ([1]; 7 mg QD): 6.3*
PSG SOL, change from baseline to week 8 ([1]; 7 mg QD): -6.8 min
PSG TST, change from baseline to week 8 ([1]; 7 mg QD): −42.7* min
PSG WASO, change from baseline to week 8 ([1]; 7 mg QD): 38.1* min
PSG % of time in N1, change from baseline to week 8 ([1]; 0.5/0.5 mg): 1.13%
PSG % of time in N2, change from baseline to week 8 ([1]; 0.5/0.5 mg): −1.75%
PSG % of time in N3, change from baseline to week 8 ([1]; 0.5/0.5 mg): −0.27%
PSG % of time in REM, change from baseline to week 8 ([1]; 0.5/0.5 mg): 1.28%
PSG % of time in WASO, change from baseline to week 8 ([1]; 0.5/0.5 mg): −0.39%
PSG No. of awakenings, change from baseline to week 8 ([1]; 0.5/0.5 mg): −2.3
PSG SOL, change from baseline to week 8 ([1]; 0.5/0.5 mg): 0.4 min
PSG TST, change from baseline to week 8 ([1]; 0.5/0.5 mg): -5.4 min
PSG WASO, change from baseline to week 8 ([1]; 0.5/0.5 mg): -3.6 min
PSG % of time in N1, change from baseline to week 8 ([1]; 2/2 mg): 1.76%
PSG % of time in N2, change from baseline to week 8 ([1]; 2/2 mg): 0.65%
PSG % of time in N3, change from baseline to week 8 ([1]; 2/2 mg): 0.45%
PSG % of time in REM, change from baseline to week 8 ([1]; 2/2 mg): −2.43%
PSG % of time in WASO, change from baseline to week 8 ([1]; 2/2 mg): −0.43%
PSG No. of awakenings, change from baseline to week 8 ([1]; 2/2 mg): 2.5
PSG SOL, change from baseline to week 8 ([1]; 2/2 mg): -1.9 min
PSG TST, change from baseline to week 8 ([1]; 2/2 mg): 8.4 min
PSG WASO, change from baseline to week 8 ([1]; 2/2 mg): -2.4 min
PSG % of time in N1, change from baseline to week 8 ([1]; 2/5 mg): 3.55* %
PSG % of time in N2, change from baseline to week 8 ([1]; 2/5 mg): −1.69%
PSG % of time in N3, change from baseline to week 8 ([1]; 2/5 mg): −0.44%
PSG % of time in REM, change from baseline to week 8 ([1]; 2/5 mg): −4.08* %
PSG % of time in WASO, change from baseline to week 8 ([1]; 2/5 mg): 2.57%
PSG No. of awakenings, change from baseline to week 8 ([1]; 2/5 mg): 3.2
PSG SOL, change from baseline to week 8 ([1]; 2/5 mg): -3.4 min
PSG TST, change from baseline to week 8 ([1]; 2/5 mg): -19.9 min
PSG WASO, change from baseline to week 8 ([1]; 2/5 mg): 11.0 min
REM sleep architecture per quarter night (in-clinic PSG) ([1]; week 8 (FIG. 6A)): shifted REM sleep from early to later in the night without reducing the total REM
Rate of transitions between REM and wake/N1 ([1]; week 8, except in the 0.5 mg/0.5 mg cohort (FIG. 6B)): reduced the rate of sleep/wake transitions early in the night
Number of nocturnal awakenings, awakenings >5 min and longest sleep bout (accelerometry) ([2]; 2 mg/2 mg cohort (FIG. 7)): small but statistically significant reductions
At-home nighttime TST and WASO, change from baseline ([2]; accelerometry, overall (FIG. 7)): minimal changes overall
At-home TST ([2]; week 1 only, 2 mg/5 mg and 7 mg QD cohorts, resolving over time): reduced TST was observed
FINI-Everyday Activities, LS mean change from baseline to Week 8 [3]: −41.4 to −54.5
FINI-Everyday Responsibilities, LS mean change from baseline to Week 8 [3]: −35.0 to −53.7
FINI-Social Activities, LS mean change from baseline to Week 8 [3]: −29.9 to −43.1
Patients much/very much improved on the PGI and CGI [4]: > 70%
